Earlier results on one compound are cited in patent publication US20250345266A1, “READY-TO-INFUSE OXYTOCIN COMPOSITIONS” (AMNEAL PHARMACEUTICALS LLC, priority 2024, published 2025).

Turning to `CC[C@H](C)[C@@H]1NC(=O)[C@H](Cc2ccc(O)cc2)NC(=O)[C@@H](N)CSSC[C@@H](C(=O)N2CCC[C@H]2C(=O)N[C@@H](CC(C)C)C(=O)NCC(N)=O)NC(=O)[C@H](CC(N)=O)NC(=O)[C@H](CCC(N)=O)NC1=O` [Oxytocin], the half-life entry is reported as “about 3 minutes”.
